Biological target: T1, human CCR6 (Homo sapiens, UniProt P51684)
T1 construct: expressed in transfected cells; host or cells: HEK-293
T1 sequence (P51684 1-374): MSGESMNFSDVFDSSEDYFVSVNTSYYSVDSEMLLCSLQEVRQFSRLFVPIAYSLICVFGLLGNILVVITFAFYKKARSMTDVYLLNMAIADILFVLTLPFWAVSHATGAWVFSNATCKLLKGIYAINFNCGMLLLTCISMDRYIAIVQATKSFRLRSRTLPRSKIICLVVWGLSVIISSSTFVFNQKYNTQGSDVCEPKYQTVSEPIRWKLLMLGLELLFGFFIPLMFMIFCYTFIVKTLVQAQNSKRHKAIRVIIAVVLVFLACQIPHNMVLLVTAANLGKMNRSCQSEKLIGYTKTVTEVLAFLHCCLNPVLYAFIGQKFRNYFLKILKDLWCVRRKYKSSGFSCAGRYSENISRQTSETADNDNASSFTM
Experiment: FLIPR assay: inhibition of CCL20-induced calcium signal in HEK-293 cells expressing human CCR6
Assay type: cell-based
Conditions: engineered HEK-293 cells expressing human CCR6; agonist CCL20 10 nM; 30 min preincubation; Fluo-8-AM; mean values if determined several times
Method: FLIPR assay: The bioactivity of compounds is tested in a fluorometric imaging plate reader (FLIPR: Molecular Devices) using engineered HEK-293 cells expressing the human CCR6 (GenBank: AY242126). Frozen cells are plated on Poly-L-Lysine precoated 384-well plates 2 days prior to bioassay in DMEM medium supplemented with 10% FCS and 1% Penicillin-Streptomycin. At the day of bioassay, cell supernatant is discarded and cells are dye loaded for 30 minutes at room temperature in the dark with Fluo-8-AM (Focus Biomolecules) in Hanks Balanced Salt Solution (Gibco), buffered with 20 mM Hepes at pH 6.75 and supplemented with 0.05% BSA. This buffer, but lacking the dye, is also used for washing and compound dilution steps (assay buffer). Cells are washed free of excess dye with a wash-station (Biotek), leaving 40 microliter of assay buffer at the end. Cells were incubated for 15 minutes at room temperature in the dark, before adding compounds. Stock solutions of test compounds are made up at a concentration of 10 mM in DMSO, and serially diluted first in DMSO and then transferred in assay buffer to concentrations required for inhibition dose response curves. After a 45 minute incubation period in assay buffer at room temperature, 10 microliters of each compound dilution are transferred from a compound plate to the plate containing the recombinant cells in the FLIPR instrument according to the manufacturer's instructions. After cells and compounds were preincubated for 30 minutes at room temperature in the dark, 10 microliter agonist CCL20 (Peprotech) at a final concentration of 10 nM is added, again using the FLIPR instrument. Changes in fluorescence are monitored before and after addition of the test compounds and agonist. Emission peak values above base level after CCL20 addition are exported after base line subtraction. The calculated IC50 values may fluctuate depending on the daily assay performance. Fluctuations of this kind are known to those skilled in the art. In the case where IC50 values have been determined several times for the same compound, mean values are given.

SMILES: CCCc1nc(-c2cncc([C@@](O)(c3ccc(C(C)C)cc3)C3(C)CN(C)C3)c2)nn1C(C)C [Example 41, (R)-(1,3-Dimethyl-azetidin-3-yl)-(4-isopropyl-phenyl)-[5-(1-isopropyl-5-propyl-1H-[1,2,4]triazol-3-yl)-pyridin-3-yl]-methanol]
- IC50: 45.3 nM

SMILES: CC(C)c1ccc([C@](O)(c2cncc(-c3nc(C4CCN(C)C(=O)C4)n(C(C)C)n3)c2)C2(C)CN(C)C2)cc1 (stereo partly drawn) [Example 42, 4-(5-{5-[(R)-(1,3-Dimethyl-azetidin-3-yl)-hydroxy-(4-isopropyl-phenyl)-methyl]-pyridin-3-yl}-2-isopropyl-2H-[1,2,4]triazol-3-yl)-1-methyl-piperidin-2-one]
- IC50: 200 nM

SMILES: CC(=O)N[C@H]1CC[C@H](c2nc(-c3cncc([C@@](O)(c4ccc(C(C)C)cc4)C4(C)CN(C)C4)c3)nn2C(C)C)CC1 [Example 43, N-[4-(5-{5-[(R)-(1,3-Dimethyl-azetidin-3-yl)-hydroxy-(4-isopropyl-phenyl)-methyl]-pyridin-3-yl}-2-isopropyl-2H-[1,2,4]triazol-3-yl)-trans-cyclohexyl]-acetamide]
- IC50: 115 nM

SMILES: CC(C)c1ccc([C@](O)(c2cncc(-c3nc(C4CCN(C(=O)CO)CC4)n(C(C)C)n3)c2)C2(C)CN(C)C2)cc1 [Example 44, 1-[4-(5-{5-[(R)-(1,3-Dimethyl-azetidin-3-yl)-hydroxy-(4-isopropyl-phenyl)-methyl]-pyridin-3-yl}-2-isopropyl-2H-[1,2,4]triazol-3-yl)-piperidin-1-yl]-2-hydroxy-ethanone]
- IC50: 199 nM

SMILES: CC(C)c1ccc([C@](O)(c2cncc(-c3nc(C4(C)CCNC(=O)C4)n(C(C)C)n3)c2)C2(C)CN(C)C2)cc1 (stereo partly drawn) [Example 45, 4-(5-{5-[(R)-(1,3-Dimethyl-azetidin-3-yl)-hydroxy-(4-isopropyl-phenyl)-methyl]-pyridin-3-yl}-2-isopropyl-2H-[1,2,4]triazol-3-yl)-4-methyl-piperidin-2-one]
- IC50: 193 nM

SMILES: CC(C)c1ccc([C@](O)(c2cncc(-c3nc(C4CCNC(=O)C4)n(C(C)C)n3)c2)C2(C)CN(C)C2)cc1 (stereo partly drawn) [Example 46, 4-(5-{5-[(R)-(1,3-Dimethyl-azetidin-3-yl)-hydroxy-(4-isopropyl-phenyl)-methyl]-pyridin-3-yl}-2-isopropyl-2H-[1,2,4]triazol-3-yl)-piperidin-2-one]
- IC50: 161 nM

SMILES: CC(=O)N1CCC(O)(c2nc(-c3cncc([C@@](O)(c4ccc(C(C)C)cc4)C4(C)CN(C)C4)c3)nn2C(C)C)CC1 [Example 47, 1-[4-(5-{5-[(R)-(1,3-Dimethyl-azetidin-3-yl)-hydroxy-(4-isopropyl-phenyl)-methyl]-pyridin-3-yl}-2-isopropyl-2H-[1,2,4]triazol-3-yl)-4-hydroxy-piperidin-1-yl]-ethanone]
- IC50: 206 nM

SMILES: COCCn1nc(-c2cncc([C@@](O)(c3ccc(C(C)C)cc3)C3(C)CN(C)C3)c2)nc1C1CCOCC1 [Example 48, (R)-(1,3-Dimethyl-azetidin-3-yl)-(4-isopropyl-phenyl)-{5-[1-(2-methoxy-ethyl)-5-(tetrahydro-pyran-4-yl)-1H-[1,2,4]triazol-3-yl]-pyridin-3-yl}-methanol]
- IC50: 170 nM

SMILES: CC(C)c1ccc([C@](O)(c2cncc(-c3nc(C4CCOCC4)n(C4CC4)n3)c2)C2(C)CN(C3CC3)C2)cc1 [Example 49, (R)-(1-Cyclopropyl-3-methyl-azetidin-3-yl)-{5-[1-cyclopropyl-5-(tetrahydro-pyran-4-yl)-1H-[1,2,4]triazol-3-yl]-pyridin-3-yl}-(4-isopropyl-phenyl)-methanol]
- IC50: 55.8 nM

SMILES: CC(=O)NCCn1nc(-c2cncc([C@@](O)(c3ccc(C(C)C)cc3)C3(C)CN(C)C3)c2)nc1C1CCOCC1 [Example 50, N-{2-[3-{5-[(R)-(1,3-Dimethyl-azetidin-3-yl)-hydroxy-(4-isopropyl-phenyl)-methyl]-pyridin-3-yl}-5-(tetrahydro-pyran-4-yl)-[1,2,4]triazol-1-yl]-ethyl}-acetamide]
- IC50: 481 nM

SMILES: CC(C)c1ccc([C@](O)(c2cnnc(-c3nc(C4CCOCC4)n(C(C)C)n3)c2)C2(C)CN(C)C2)cc1 [Example 51, (R)-(1,3-Dimethyl-azetidin-3-yl)-(4-isopropyl-phenyl)-{6-[1-isopropyl-5-(tetrahydro-pyran-4-yl)-1H-[1,2,4]triazol-3-yl]-pyridazin-4-yl}-methanol]
- IC50: 578 nM

From patent US20250042881A1, “CCR6 RECEPTOR MODULATORS” (Idorsia Pharmaceuticals Ltd, priority 2021, published 2025)
